Laboratory results as given in BigSolDB 2.1.

CC1=NN(c2ccccc2)C(=O)C1
solubility (mole fraction)
Conditions	283.15 K	288.15 K	293.15 K	298.15 K	303.15 K	313.15 K	323.15 K
in 1,4-dioxane	–	0.027	0.0341	–	0.0483	0.0669	0.1
in acetone	0.0167	–	0.0254	–	0.0371	0.0563	0.108
in acetonitrile	0.00788	–	0.0126	–	0.019	0.0284	0.0438
in dichloromethane	0.0447	0.0499	0.0582	0.0688	0.0788	–	–
in ethanol	0.0176	–	0.024	–	0.0339	0.0457	0.0597
in ethyl acetate	0.0131	–	0.0159	–	0.0198	0.0335	0.0545
in isobutanol	0.0153	–	0.0218	–	0.0288	0.0398	0.0573
in isopropanol	0.0135	–	0.0186	–	0.0268	0.0356	0.0514
in methanol	0.0194	–	0.0278	–	0.0402	0.0562	0.0833
in n-butanol	0.0194	–	0.0272	–	0.0372	0.0504	0.0703
in n-pentanol	0.0245	–	0.0285	–	0.0381	0.05	0.069
in n-propanol	0.0149	–	0.025	–	0.0344	0.0494	0.0689
in sec-butanol	0.0156	–	0.0218	–	0.0296	0.0404	0.0579
in water	0.000153	–	0.000163	–	0.000174	0.000189	0.00021
